This note sets out measurements from US12180198B2, “Ribocil C antibiotics effective for Gram-negative pathogens” (THE BOARD OF TRUSTEES OF THE UNIVERSITY OF ILLINOIS, priority 2018, dated 2024).

Experiment [1] relates to Gram-negative ESKAPE pathogens and E. coli. The experiment is described as follows: MIC, micro-dilution broth method (text summary). Format: cell-based. Particulars: Gram-negatives with intact outer membranes. The protocol:
FIG. 2. Antimicrobial activity of Debio-1452 and derivatives. MIC values were determined using the micro-dilution broth method as outlined by the Clinical and Laboratory Standards Institute (clsi.org/). All experiments were performed in biological triplicate.
(§1) Antimicrobial susceptibility tests. Susceptibility testing was performed in biological triplicate, using the micro-dilution broth method as outlined by the Clinical and Laboratory Standards Institute. Bacteria were cultured with cation-adjusted Muller-Hinton broth (Sigma-Aldrich, Cat #90922) in round-bottom 96-well plates (Corning, Cat #3788). Human serum (pooled gender, 0.2 μm filtered) was purchased from BioIVT (Hicksville, NY).
Background: Dilution methods test growth across graded concentrations, often in twofold steps.

Experiment [2] concerns the target E. coli FabI (Escherichia coli, UniProt P0AEK4). Description: In vitro FabI inhibition assay. The conditions noted are these: 20 nM enzyme. It counts as biochemical. The protocol: Expression and purification of E. coli FabI. E. coli BL21 (DE3) pLysS (Novagen) were transformed with pET15-ecFabI. Overnight culture (10 mL) in LB supplemented with 50 μg/mL ampicillin from single colony was diluted into 1 L LB+50 μg/mL ampicillin. Cells were grown at 37° C., 250 rpm until OD600 reached 0.8. Culture was cooled to 18° C. and induced with 0.5 mM IPTG for 18 h at 18° C. Cells were harvested by centrifugation (5,000×g, 10 min, 4° C.). Cell pellets were flash frozen and store at −20° C. pending purification. Frozen cell pellets were thawed on ice and resuspended (5 mL per gram wet pellet, typically 20-30 mL) with 0.5% CHAPS, 1 mM PMSF, 1 μg/mL leupeptin, 1 μg/mL pepstatin A, and 2 μg/mL aprotinin in binding buffer [20 mM Tris (pH 7.9), 500 mM NaCl, 5 mM imidazole]. Cells were lysed by sonication on ice (30%, 10 s pulse, 20 s rest, 5 min total). Lysate was clarified by centrifugation (35,000×g, 1 h, 4° C.) and filtration through 0.2 μm syringe filter. Lysate was incubated with 5 mL Co-NTA agarose (HisPur cobalt resin, Thermo-Fisher Scientific Cat #89965, pre-equilibrated with binding buffer) for 30 min at 4° C. with gentle rocking. Agarose-containing lysate was transferred to column and flow through discarded. Column was washed with 2 column volumes of binding buffer followed by 10 column volumes of wash buffer [20 mM Tris (pH 7.9), 500 mM NaCl, 60 mM imidazole]. Protein was eluted with 15 mL elution buffer [20 mM Tris (pH 7.9), 500 mM NaCl, 300 mM imidazole]. […] Protein concentration was determined by BCA assay (ThermoFisher Cat #23227).
In vitro FabI inhibition assay. […] Plate was placed in plate-reader (SpectraMax 190, Molecular Devices) under temperature control (25° C.), and temperature was allowed to equilibrate. […] After shaking for 5 s, reaction progress was monitored by absorbance at 340 nm every 15 s for 90 min. Linear portion of reaction progress curve was fit using plate-reader software (SoftMax Pro 7.0). Percent activity was calculated relative to DMSO-only and no-enzyme controls in each plate. […]

Experiment [3] deals with E. cloacae ATCC 29893. Description: MIC, micro-dilution broth method. It counts as cell-based. Particulars: Enterobacter cloacae, ATCC29893; E. cloacae ATCC 29893; read-out: MIC. How it is done:
(§2) Compounds were evaluated against a panel of Gram-positive and Gram-negative organisms. MIC values were determined using the micro-dilution broth method as outlined by the Clinical and Laboratory Standards Institute (clsi.org/) and are listed in […]. All experiments were performed in biological triplicate.
as §1

In experiment [4] the test system is A. baumannii W41979. Description: MIC, micro-dilution broth method. It counts as cell-based. The conditions noted are these: Acinetobacter baumannii; A. baumannii W41979; read-out: MIC. How it is done: as §2, §1
Experiment [5] relates to E. coli ΔrfaC JW3596. Description: MIC, micro-dilution broth method. Format: cell-based. The conditions noted are these: Escherichia coli. The protocol: as §2, §1
Experiment [6] has as its system E. coli AR-0493. Description: MIC, micro-dilution broth method. Format: cell-based. The conditions noted are these: Escherichia coli, AR0493; E. coli AR-0493; read-out: MIC. The protocol: as §2, §1
In experiment [7] the test system is S. aureus ATCC 29213. The experiment is described as follows: MIC, micro-dilution broth method. The conditions noted are these: Staphylococcus aureus, ATCC29213, S. aureus ATCC 29213; read-out: MIC. It counts as cell-based. How it is done: as §2, §1
The test system of experiment [8] is E. coli BAA-2340. Description: MIC, micro-dilution broth method. Format: cell-based. Particulars: Escherichia coli, BAA2340; E. coli BAA-2340; read-out: MIC. The protocol:
as §2, §1

Experiment [9] concerns E. coli MG1655. The experiment is described as follows: MIC, micro-dilution broth method. Format: cell-based. Particulars: Escherichia coli; E. coli MG1655; read-out: MIC. The protocol: as §2, §1
Experiment [10] deals with P. aeruginosa PA01. Description: MIC, micro-dilution broth method. It counts as cell-based. The conditions noted are these: Pseudomonas aeruginosa; P. aeruginosa PA01; read-out: MIC. How it is done:
as §2, §1

Experiment [11] deals with K. pneumoniae S47889. The experiment is described as follows: MIC, micro-dilution broth method. Particulars: Klebsiella pneumoniae; K. pneumoniae S47889; read-out: MIC. Format: cell-based. The protocol:
as §2, §1

In experiment [12] the test system is E. coli ΔtolC JW5503. The experiment is described as follows: MIC, micro-dilution broth method. The conditions noted are these: Escherichia coli. Format: cell-based. The protocol:
as §2, §1

≈ marks a conversion by molar mass, not a printed value.

E. coli FabI, sequence (P0AEK4 whole entry): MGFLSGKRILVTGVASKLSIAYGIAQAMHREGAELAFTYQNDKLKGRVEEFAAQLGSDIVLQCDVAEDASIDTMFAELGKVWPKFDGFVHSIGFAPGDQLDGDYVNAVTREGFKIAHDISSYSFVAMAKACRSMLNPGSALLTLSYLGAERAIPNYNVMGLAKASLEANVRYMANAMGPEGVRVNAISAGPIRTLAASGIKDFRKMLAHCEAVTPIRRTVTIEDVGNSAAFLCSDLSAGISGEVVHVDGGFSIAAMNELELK

Regarding `Cc1c(CN(C)C(=O)/C=C/c2cnc3c(c2)CC(NC(=O)OC(C)(C)C)C(=O)N3)oc2ccccc12` (stereo not drawn) [compound 8, tert-butyl(E)-(6-(3-(methyl((3-methylbenzofuran-2-yl)methyl)amino)-3-oxoprop-1-en-1-yl)-2-oxo-1,2,3,4-tetrahydro-1,8-naphthyridin-3-yl)carbamate], the “activity (in words)” value in [1] is recorded as “no activity”. Further, the “inhibition of E. coli FabI in vitro (in words)” value in [2] is listed as “potent FabI inhibitors”. The MIC in experiment [3] was above 32 µg/mL; in experiment [4] it was above 32 µg/mL; in [5] it was 0.25 µg/mL (≈ 0.51 µM); in experiment [6], above 32 µg/mL; in experiment [7] it was 0.016 µg/mL (≈ 0.0326 µM); in [8], above 32 µg/mL. For the same compound, the MIC was above 32 µg/mL in experiment [9], above 32 µg/mL in [10], above 32 µg/mL in experiment [11] and 0.125 µg/mL (≈ 0.255 µM) in [12].

Usually MIC stands for the lowest concentration that inhibits growth of the organism.
